Measured values reported in patent publication US20230374015A1, “INHIBITORS OF FIBROBLAST GROWTH FACTOR RECEPTOR KINASES” (Kinnate Biopharma Inc., priority 2020, published 2023).

Biological target: FGFR2 (Homo sapiens, UniProt P21802)
Assay: FGFR2 Kinase Protocol - Condition 1 (Reaction Biology HotSpot radiometric kinase assay)
Type: biochemical
Conditions: 20-min incubation of compound with kinase before ATP; poly[Glu:Tyr] (4:1) 0.2 mg/ml; ATP 100 micromolar; 2 hr room temperature
Description: Example 1: FGFR2 Kinase Protocol—Condition 1
The Reaction Biology HotSpot assay platform (http://www.reactionbiology.com) was used to measure kinase/inhibitor interactions as described previously (Anastassiadis et al., 2011). In brief, for each reaction, kinase and substrate were mixed in a buffer containing 20 mM HEPES (pH 7.5), 10 mM MgCl2, 1 mM EGTA, 0.02% Brij35, 0.02 mg/mL BSA, 0.1 mM Na3VO4, 2 mM DTT, and 1% DMSO. All compounds were in powder form and freshly solubilized in DMSO for assays. Compounds were then added to each reaction mixture via acoustic dispense using an ECHO 550 nanoliter dispenser. For Human FGFR2 wildtype testing, a peptide substrate, poly[Glu:Tyr] (4:1) was used to promote the reaction at a concentration of 0.2 mg/ml. For Human FGFR2 (V564F) testing, a peptide substrate, poly[Glu:Tyr] (4:1) was used to promote the reaction at a concentration of 0.2 mg/ml. ATP concentration for all assays was maintained at 100 micromolar. Compounds were tested in 10-dose IC50 mode with a 3-fold serial dilution. After a 20-min incubation, ATP (Sigma-Aldrich, St. Louis, MO 63178) and [g33P] ATP (specific activity 10 microCi/microliter) purchased at PerkinElmer (Boston, MA, 02118 Cat #BLU 003H250UC) were added at a final total concentration of […]. Reactions were carried out at room temperature for 2 hr and spotted onto P81 ion exchange cellulose chromatography paper (Reaction Biology). Filter paper was washed in 0.75% phosphoric acid to remove unincorporated ATP. The percent remaining kinase activity relative to a vehicle-containing (DMSO) kinase reaction was calculated for each kinase/inhibitor pair. IC50 values were calculated using Dotmatics Knowledge Solutions Studies curve fitting (Dotmatics, Bishops Stortford, UK, CM23).

Sequence of FGFR2 (P21802 22-821): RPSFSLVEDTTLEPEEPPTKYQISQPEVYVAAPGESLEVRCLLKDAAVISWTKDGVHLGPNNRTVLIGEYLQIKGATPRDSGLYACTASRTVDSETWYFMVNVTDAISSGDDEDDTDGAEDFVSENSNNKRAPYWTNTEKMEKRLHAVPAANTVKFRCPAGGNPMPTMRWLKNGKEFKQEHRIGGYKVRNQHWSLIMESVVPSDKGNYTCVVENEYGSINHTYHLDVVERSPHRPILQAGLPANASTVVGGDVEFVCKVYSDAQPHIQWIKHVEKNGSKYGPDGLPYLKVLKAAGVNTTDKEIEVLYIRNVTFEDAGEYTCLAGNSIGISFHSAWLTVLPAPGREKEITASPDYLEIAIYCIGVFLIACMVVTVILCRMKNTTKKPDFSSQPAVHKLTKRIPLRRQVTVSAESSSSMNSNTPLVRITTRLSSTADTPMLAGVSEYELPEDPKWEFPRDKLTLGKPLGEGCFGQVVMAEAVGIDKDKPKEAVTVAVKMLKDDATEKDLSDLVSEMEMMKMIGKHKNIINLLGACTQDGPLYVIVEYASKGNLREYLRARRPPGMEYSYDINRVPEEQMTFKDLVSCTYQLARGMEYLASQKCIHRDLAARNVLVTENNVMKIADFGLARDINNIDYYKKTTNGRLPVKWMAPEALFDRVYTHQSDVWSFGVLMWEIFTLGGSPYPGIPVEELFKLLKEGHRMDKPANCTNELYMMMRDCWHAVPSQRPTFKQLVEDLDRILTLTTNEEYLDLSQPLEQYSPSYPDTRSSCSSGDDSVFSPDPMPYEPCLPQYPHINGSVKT

Structure (SMILES)	IC50 [nM]
C=CC(=O)N1CC[C@H](n2nc(C#Cc3ccc4[nH]c(C)nc4c3)c3c(N)ncnc32)C1 [Example 7, (S)-1-(3-(4-amino-3-((2-methyl-1H-benzo[d]imidazol-5-yl)ethynyl)-1H-pyrazolo[3,4-d]pyrimidin-1-yl)pyrrolidin-1-yl)prop-2-en-1-one]	≤ 100
C=CC(=O)N1C[C@@H](n2nc(C#Cc3ccc4[nH]ncc4c3)c3c(N)ncnc32)C[C@@H]1COC [Example 2, 1-((2R,4S)-4-(3-((1H-indazol-5-yl)ethynyl)-4-amino-1H-pyrazolo[3,4-d]pyrimidin-1-yl)-2-(methoxymethyl)pyrrolidin-1-yl)prop-2-en-1-one]	≤ 100
C=CC(=O)N1C[C@@H](n2nc(C#Cc3ccc4c(c3)ncn4C3CC3)c3c(N)nccc32)C[C@@H]1COC [Example 24, 1-((2R,4S)-4-(4-amino-3-((1-cyclopropyl-1H-benzo[d]imidazol-5-yl)ethynyl)-1H-pyrazolo[4,3-c]pyridin-1-yl)-2-(methoxymethyl)pyrrolidin-1-yl)prop-2-en-1-one]	≤ 100
C=CC(=O)N1C[C@@H](n2nc(C#Cc3ccc4cn[nH]c4c3)c3c(N)ncnc32)C[C@@H]1COC [Example 14, 1-((2R,4S)-4-(3-((1H-indazol-6-yl)ethynyl)-4-amino-1H-pyrazolo[3,4-d]pyrimidin-1-yl)-2-(methoxymethyl)pyrrolidin-1-yl)prop-2-en-1-one]	≤ 100
C=CC(=O)N1C[C@@H](n2nc(C#Cc3ccc4ncn(C)c4c3)c3c(N)ncnc32)C[C@@H]1COC [Example 9, 1-((2R,4S)-4-(4-amino-3-((1-methyl-1H-benzo[d]imidazol-6-yl)ethynyl)-1H-pyrazolo[3,4-d]pyrimidin-1-yl)-2-(methoxymethyl)pyrrolidin-1-yl)prop-2-en-1-one]	100 to 1000
C=CC(=O)N1C[C@@H](n2cc(C#Cc3ccc4nc(C)[nH]c4c3)c3c(N)ncnc32)C[C@@H]1COC [Example 8, 1-[(2R,4S)-4-[4-amino-5-[2-(2-methyl-3H-1,3-benzodiazol-5-yl)ethynyl]pyrrolo[2,3-d]pyrimidin-7-yl]-2-(methoxymethyl)pyrrolidin-1-yl]prop-2-en-1-one]	≤ 100
C=CC(=O)N1C[C@@H](n2nc(C#Cc3ccc4[nH]nnc4c3)c3c(N)ncnc32)C[C@@H]1COC [Example 10, 1-((2R,4S)-4-(3-((1H-benzo[d][1,2,3]triazol-5-yl)ethynyl)-4-amino-1H-pyrazolo[3,4-d]pyrimidin-1-yl)-2-(methoxymethyl)pyrrolidin-1-yl)prop-2-en-1-one]	≤ 100
C=CC(=O)N1C[C@@H](n2nc(C#Cc3ccc4c(c3)nc(C)n4C3CC3)c3c(N)nccc32)C[C@@H]1COC [Example 17, 1-((2R,4S)-4-(4-amino-3-((1-cyclopropyl-2-methyl-1H-benzo[d]imidazol-5-yl)ethynyl)-1H-pyrazolo[4,3-c]pyridin-1-yl)-2-(methoxymethyl)pyrrolidin-1-yl)prop-2-en-1-one]	≤ 100
C=CC(=O)N1C[C@@H](n2nc(C#Cc3c(F)cc4c(ncn4C)c3F)c3c(N)nccc32)C[C@@H]1COC [Example 26, 1-((2R,4S)-4-(4-amino-3-((4,6-difluoro-1-methyl-1H-benzo[d]imidazol-5-yl)ethynyl)-1H-pyrazolo[4,3-c]pyridin-1-yl)-2-(methoxymethyl)pyrrolidin-1-yl)prop-2-en-1-one]	≤ 100
C=CC(=O)N1C[C@@H](n2nc(C#Cc3c(F)cc4nc(C)n(C)c4c3F)c3c(N)ncnc32)C[C@@H]1COC [Example 13, 1-((2R,4S)-4-(4-amino-3-((5,7-difluoro-1,2-dimethyl-1H-benzo[d]imidazol-6-yl)ethynyl)-1H-pyrazolo[3,4-d]pyrimidin-1-yl)-2-(methoxymethyl)pyrrolidin-1-yl)prop-2-en-1-one]	≤ 100

The remaining lines, values ahead:

IC50 [nM]	Structure (SMILES)
≤ 100	C=CC(=O)N1C[C@@H](n2nc(C#Cc3ccc4c(c3)nc(C)n4CC)c3c(N)nccc32)C[C@@H]1COC [Example 21, 1-((2R,4S)-4-(4-amino-3-((1-ethyl-2-methyl-1H-benzo[d]imidazol-5-yl)ethynyl)-1H-pyrazolo[4,3-c]pyridin-1-yl)-2-(methoxymethyl)pyrrolidin-1-yl)prop-2-en-1-one]
≤ 100	C=CC(=O)N1C[C@@H](n2nc(C#Cc3ccc4c(c3)ncn4C)c3c(N)ncnc32)C[C@@H]1COC [Example 6, 1-((2R,4S)-4-(4-amino-3-((1-methyl-1H-benzo[d]imidazol-5-yl)ethynyl)-1H-pyrazolo[3,4-d]pyrimidin-1-yl)-2-(methoxymethyl)pyrrolidin-1-yl)prop-2-en-1-one]
≤ 100	C=CC(=O)N1C[C@@H](n2nc(C#Cc3ccc4[nH]cnc4c3)c3c(N)ncnc32)C[C@@H]1COC [Example 5, 1-((2R,4S)-4-(3-((1H-benzo[d]imidazol-5-yl)ethynyl)-4-amino-1H-pyrazolo[3,4-d]pyrimidin-1-yl)-2-(methoxymethyl)pyrrolidin-1-yl)prop-2-en-1-one]
≤ 100	C=CC(=O)N1C[C@@H](n2nc(C#Cc3c(F)cc4nc(C)[nH]c4c3F)c3c(N)nccc32)C[C@@H]1COC [Example 18, 1-((2R,4S)-4-(4-amino-3-((5,7-difluoro-2-methyl-1H-benzo[d]imidazol-6-yl)ethynyl)-1H-pyrazolo[4,3-c]pyridin-1-yl)-2-(methoxymethyl)pyrrolidin-1-yl)prop-2-en-1-one]
≤ 100	C=CC(=O)N1C[C@@H](n2nc(C#Cc3ccc4c(c3)ncn4CC)c3c(N)nccc32)C[C@@H]1COC [Example 23, 1-((2R,4S)-4-(4-amino-3-((1-ethyl-1H-benzo[d]imidazol-5-yl)ethynyl)-1H-pyrazolo[4,3-c]pyridin-1-yl)-2-(methoxymethyl)pyrrolidin-1-yl)prop-2-en-1-one]
≤ 100	C=CC(=O)N1C[C@@H](n2cc(C#Cc3ccc4c(c3)ncn4C)c3c(N)nccc32)C[C@@H]1COC [Example 27, 1-((2R,4S)-4-(4-amino-3-((1-methyl-1H-benzo[d]imidazol-5-yl)ethynyl)-1H-pyrrolo[3,2-c]pyridin-1-yl)-2-(methoxymethyl)pyrrolidin-1-yl)prop-2-en-1-one]
≤ 100	C=CC(=O)N1C[C@@H](n2nc(C#Cc3ccc4c(c3)nc(C)n4C3CC3)c3c(N)ncnc32)C[C@@H]1COC [Example 15, 1-((2R,4S)-4-(4-amino-3-((1-cyclopropyl-2-methyl-1H-benzo[d]imidazol-5-yl)ethynyl)-1H-pyrazolo[3,4-d]pyrimidin-1-yl)-2-(methoxymethyl)pyrrolidin-1-yl)prop-2-en-1-one]
≤ 100	C=CC(=O)N1C[C@@H](n2nc(C#Cc3ccc4[nH]c(C)nc4c3)c3c(N)ncnc32)C[C@@H]1COC [Example 1, 1-((2R,4S)-4-(4-amino-3-((2-methyl-1H-benzo[d]imidazol-5-yl)ethynyl)-1H-pyrazolo[3,4-d]pyrimidin-1-yl)-2-(methoxymethyl)pyrrolidin-1-yl)prop-2-en-1-one]
≤ 100	C=CC(=O)N1CC[C@H](n2cc(C#Cc3ccc4[nH]c(C)nc4c3)c3c(N)ncnc32)C1 [Example 11, (S)-1-(3-(4-amino-5-((2-methyl-1H-benzo[d]imidazol-5-yl)ethynyl)-7H-pyrrolo[2,3-d]pyrimidin-7-yl)pyrrolidin-1-yl)prop-2-en-1-one]
≤ 100	C=CC(=O)N1C[C@@H](n2nc(C#Cc3ccc4c(c3)nc(C)n4C)c3c(N)nccc32)C[C@@H]1COC [Example 25, 1-((2R,4S)-4-(4-amino-3-((1,2-dimethyl-1H-benzo[d]imidazol-5-yl)ethynyl)-1H-pyrazolo[4,3-c]pyridin-1-yl)-2-(methoxymethyl)pyrrolidin-1-yl)prop-2-en-1-one]
≤ 100	C=CC(=O)N1C[C@@H](n2nc(C#Cc3ccc4c(c3)ncn4C)c3c(N)nccc32)C[C@@H]1COC [Example 19, 1-((2R,4S)-4-(4-amino-3-((1-methyl-1H-benzo[d]imidazol-5-yl)ethynyl)-1H-pyrazolo[4,3-c]pyridin-1-yl)-2-(methoxymethyl)pyrrolidin-1-yl)prop-2-en-1-one]
≤ 100	C=CC(=O)N1C[C@@H](n2nc(C#Cc3ccc4c(c3)nc(C)n4CC)c3c(N)ncnc32)C[C@@H]1COC [Example 20, 1-((2R,4S)-4-(4-amino-3-((1-ethyl-2-methyl-1H-benzo[d]imidazol-5-yl)ethynyl)-1H-pyrazolo[3,4-d]pyrimidin-1-yl)-2-(methoxymethyl)pyrrolidin-1-yl)prop-2-en-1-one]
≤ 100	C=CC(=O)N1C[C@@H](n2nc(C#Cc3ccc4nc(C)n(C)c4c3)c3c(N)ncnc32)C[C@@H]1COC [Example 4, 1-((2R,4S)-4-(4-amino-3-((1,2-dimethyl-1H-benzo[d]imidazol-6-yl)ethynyl)-1H-pyrazolo[3,4-d]pyrimidin-1-yl)-2-(methoxymethyl)pyrrolidin-1-yl)prop-2-en-1-one]
